Where two headings read alike, the source gives them in different places.
Experiments:
[1] = molecular target: T1, AtPDF1B (Arabidopsis thaliana, UniProt Q9FUZ2); experiment: PDF inhibition, formate dehydrogenase-coupled spectrophotometric assay (AtPDF1B); assay type: biochemical; settings: for IC50 / Ki: 100 nM AtPDF1B; for IC50: 2 mM Fo-Met-Ala-Ser, 10 min pre-incubation at 37 °C; for Ki: PDFI pre-incubated with enzyme 10 min at 37 °C, started by 2 mM Fo-Met-Ala-Ser, read-out: AtPDF1B KI*app; for AtPDF1B KI/KI*app: enhancement potency (slow tight-binding)
T1 construct: made in house
T1 sequence (Q9FUZ2 83-273): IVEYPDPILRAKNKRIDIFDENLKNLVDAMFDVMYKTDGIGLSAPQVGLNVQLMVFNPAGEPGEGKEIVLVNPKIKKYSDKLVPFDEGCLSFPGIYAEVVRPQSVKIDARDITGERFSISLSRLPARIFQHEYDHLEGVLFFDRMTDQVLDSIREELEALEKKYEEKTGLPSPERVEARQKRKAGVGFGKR
Description: (§1) Enzymatic activity was measured by a spectrophotometric assay where peptide deformylase activity is coupled to that of formate dehydrogenase. The formate released by the deformylation reaction is used by FDH to convert NAD in NADH, the production of which being measured over time at 340 nm and controlled temperature (37 °C). The 200 μL reaction mixture contained 50 mM HEPES-NaOH pH7.5, 12 mM NAD^+, 4.5 U/mL FDH, 1 mM NiCl2 and PDF enzyme (either 40 nM SaPDF or 10 nM EcPDF or 100 nM AtPDF1B) previously diluted in presence of 0.1 mg/mL BSA. The reaction was started by addition of 1–6 mM Fo-Met-Ala-Ser. Kinetics parameters (kcat, Km) were derived from iterative non-linear least square fits using the Michaelis-menten equation based on the experimental data (Sigma-Plot, Kinetics module).
(§2) 1/KI*app is the slope of the v0/vi curve in function of compound concentration, where v0 and vi are the initial reaction rates in absence and presence of compound, respectively.
(§3) Determination of KI values was performed with a slightly modified protocol: reaction was started by addition of enzyme instead of Fo-Met-Ala-Ser, the latter being directly added to the mixture containing increasing concentrations of each compound. No pre-incubation of enzyme in presence of compound was done. 1/KI is the slope of the v0/vi curve in function of compound concentration, where v0 and vi are the initial reaction rates in absence and presence of compound respectively.

[2] = test system: E. aerogenes Ea294, Ea289 derivative AcrAB-; experiment: MIC by microdilution, E. aerogenes Ea294; assay type: cell-based, Enterobacter aerogenes; settings: for MIC Ea294: +PMBN at 1/5 of its MIC, average of three assays; for MIC: Klebsiella aerogenes, 18 h, read-out: MIC Ea294
Description: (§4) Two E. coli strains, one B. subtilis strain, one S. aureus strain, one E. faecalis strain, one S. agalactiae strain and three Enterobacter aerogenes strains previously described were used. Briefly, AG100 was an E. coli wild type strain and AG100A its acrAB^- derivative. EA289 was a Kan^s derivative of an E. aerogenes multi-drug resistant (MDR) clinical isolate overexpressing AcrAB-TolC efflux pumps, and EA294 and EA298 its acrAB^- and tolC^- derivatives respectively. Strains were routinely grown at 37 °C on Luria-Bertani (LB) agar or in Mueller-Hinton II broth (MH), supplemented with kanamycine (50 μg.mL^−1) for AG100A, EA294 and EA298.
(§5) MIC values of antibiotics were determined by the microdilution method in liquid MH media in microplates in the absence or presence of chemosensitizers/modulators (e.g. PMBN, PAβN), as previously described. Permeabilization, blocking of efflux pumps, and isolates with different levels of porin or efflux expression were used to assess the involvement of the membrane barrier in antibiotic activity.
(§6) Susceptibilities were determined in 96-wells microplates with an inoculum of 2 × 10^5 cfu in 200 μL of MH broth containing two-fold serial dilutions of each antibiotics or compounds. Molecules were tested alone or in combination with other molecules in equimolar ratio. MICs were realized in the absence and in the presence of a membrane permeabilizer, the polymyxine B nonapeptide (PMBN) used at 51.2 mg/L (1/5 or 1/10 of its direct MIC previously determined). Actinonin and ciprofloxacin were used as internal antibiotic reference. […] Each test was systematically performed in triplicate. The average of three independent assays is presented in μg/mL in the respective tables.

[3] = molecular target: T2, SaPDF (Streptococcus agalactiae serotype III, UniProt Q8E378, S2A); experiment: biochemical; settings: SaPDF KI*app, PDFI pre-incubated with enzyme 10 min at 37 °C, started by 2 mM Fo-Met-Ala-Ser; 40 nM SaPDF
T2 construct: the recombinant protein contains all residues of the 204 amino acids mature protein; made in house; host or cells: E. coli Rosetta 2(DE3)pLysS

[4] = test system: E. aerogenes Ea298, Ea289 derivative tolC-; experiment: MIC by microdilution, E. aerogenes Ea298; assay type: cell-based, Enterobacter aerogenes; settings: for MIC Ea298: +PMBN at 1/5 of its MIC, average of three assays; for MIC: Klebsiella aerogenes, 18 h, read-out: MIC Ea298
Description: as §4, §5, §6

[5] = test system: E. aerogenes Ea289, MDR strain; experiment: MIC by microdilution, E. aerogenes Ea289; assay type: cell-based, Enterobacter aerogenes; settings: for MIC Ea289: +PMBN at 1/5 of its MIC, average of three assays; for MIC: Klebsiella aerogenes, 18 h, read-out: MIC Ea289
Description: as §4, §5, §6

[6] = test system: E. coli AG100; experiment: MIC by microdilution, E. coli AG100; assay type: cell-based; settings: 18 h at 37 °C, average of three assays; for MIC: Escherichia coli, AG100, without PMBN; for MIC AG100: with PMBN at 1/5 of its MIC
Description: as §4, §5, §6

[7] = test system: E. coli AG100A (AcrAB- derivative); experiment: MIC by microdilution, E. coli AG100A; assay type: cell-based; settings: for MIC: Escherichia coli, 18 h, read-out: MIC AG100A; for MIC AG100A: with PMBN at 1/5 of its MIC, 18 h at 37 °C, average of three assays
Description: as §4, §5, §6

[8] = molecular target: T1, AtPDF1B; experiment: PDF inhibition, formate dehydrogenase-coupled spectrophotometric assay (AtPDF1B); assay type: biochemical; settings: no pre-incubation, assay initiated by addition of enzyme; 100 nM AtPDF1B; 37 °C
[9] = molecular target: T2, SaPDF; experiment: biochemical; settings: for Ki: SaPDF KI, no pre-incubation, assay initiated by addition of enzyme, 40 nM SaPDF, 37 °C; for SaPDF KI/KI*app: enhancement potency (slow tight-binding)
Description: as §1, §2, §3

[10] = molecular target: T3, EcPDF (Escherichia coli, UniProt P0A6K3); experiment: PDF inhibition, formate dehydrogenase-coupled spectrophotometric assay (EcPDF); assay type: biochemical; settings: for Ki: 10 nM EcPDF; for EcPDF KI/KI*app: enhancement potency (slow tight-binding)
T3 construct: made in house
Description: as §1, with “The” for “Enzymatic activity was measured by a spectrophotometric assay where peptide deformylase activity is coupled to that of formate dehydrogenase. The”
as §2, §3

[11] = test system: E. faecalis EFA 103.214; experiment: MIC, E. faecalis EFA 103.214; assay type: cell-based; settings: Enterococcus faecalis, EFA103.214, read-out: MIC E. faecalis EFA 103.214
Description: as §4, §5, §6

[12] = test system: S. aureus SA113; experiment: MIC, S. aureus SA113; assay type: cell-based; settings: Staphylococcus aureus
Description: as §4, §5, §6

[13] = EcPDF KI*app, PDFI pre-incubated with enzyme 10 min at 37 °C, started by 2 mM Fo-Met-Ala-Ser
[14] = EcPDF KI, no pre-incubation, assay initiated by addition of enzyme, 37 °C

T3 sequence (P0A6K3 whole entry): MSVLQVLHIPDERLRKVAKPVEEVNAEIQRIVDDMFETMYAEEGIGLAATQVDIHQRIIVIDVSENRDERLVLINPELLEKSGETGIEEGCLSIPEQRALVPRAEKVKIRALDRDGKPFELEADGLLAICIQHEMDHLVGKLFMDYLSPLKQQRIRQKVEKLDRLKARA
T2 sequence (Q8E378 whole entry S2A): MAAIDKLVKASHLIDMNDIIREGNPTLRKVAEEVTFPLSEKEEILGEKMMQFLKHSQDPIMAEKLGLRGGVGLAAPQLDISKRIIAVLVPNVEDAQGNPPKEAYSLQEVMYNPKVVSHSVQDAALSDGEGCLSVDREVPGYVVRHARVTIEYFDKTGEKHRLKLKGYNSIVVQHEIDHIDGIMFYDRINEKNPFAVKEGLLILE

| SMILES | IC50 [1] | Ki [1] | MIC Ea294 [2] | MIC [2] | Ki [3] | MIC [6] | MIC AG100 [6] | MIC [7] | MIC AG100A [7] | Ki [8] | IC50 [9] | Ki [9] | AtPDF1B KI/KI*app [1] | IC50 [10] | Ki [10, 13] | Ki [10, 14] | EcPDF KI/KI*app [10] | SaPDF KI/KI*app [9] | MIC [11] | MIC [12] | further results |
| --- | --- | --- | --- | --- | --- | --- | --- | --- | --- | --- | --- | --- | --- | --- | --- | --- | --- | --- | --- | --- | --- |
| CCCCC[C@H](CC(=O)NO)C(=O)N[C@H](C(=O)N1CCC[C@H]1CO)C(C)C [Actinonin, actinonin, reference compound] | 7.5 ± 1.8 nM | 3.5 ± 0.3 nM | 4 µg/mL | 64 µg/mL | 1 ± 0.1 nM | 128 µg/mL | 4 µg/mL | 1 µg/mL | 0.25 µg/mL | 82 ± 10 nM | 3 ± 0.9 nM | 64 ± 5 nM |  |  |  |  |  |  |  |  | MIC Ea298 [4]: 1 µg/mL; MIC [4]: 32 µg/mL; MIC Ea289 [5]: 32 µg/mL; MIC [5]: > 64 µg/mL |
| O=C(Cc1c[nH]c2ccc(Br)cc12)NO [AB47] | 360 ± 31 nM | 400 ± 35 nM |  |  | 73 ± 5 nM | > 64 µg/mL | 64 µg/mL | 64 µg/mL | 32 µg/mL | 455 ± 89 nM | 63 ± 6 nM | 62 ± 3 nM | 1 | 37 ± 5 nM | 39 ± 2 nM | 47 ± 2 nM | 1 | 1 |  |  |  |
| O=C(Cn1cc(Cc2ccccc2)c2cc(Br)ccc21)NO [SMP289] | 703 ± 47 nM | 1430 nM |  |  | 714 ± 72 nM | > 64 µg/mL | 8 µg/mL | > 64 µg/mL | 4 µg/mL | 1000 ± 78 nM | 360 ± 21 nM | 909 ± 64 nM | 1 | 480 ± 30 nM | 625 ± 75 nM | 769 ± 30 nM | 1 | 1 | 16 µg/mL | 4 µg/mL |  |
| O=C(Cc1cn(Cc2ccccc2)c2ccc(Br)cc12)NO [SMP195] | 400 ± 33 nM | 833 ± 53 nM |  |  | 250 ± 17 nM |  |  |  |  | 909 ± 118 nM | 110 ± 10 nM | 285 ± 18 nM | 1 | 17 ± 4 nM | 20 ± 3 nM | 29 ± 4 nM | 1 | 1 | 16 µg/mL | 4 µg/mL |  |
| CC(C)(C)OC(=O)N[C@@H](Cc1ccccc1)CN(O)C=O [RAS358] | 251 ± 15 nM | 400 ± 37 nM |  |  | 454 ± 29 nM |  |  |  |  | 2000 ± 150 nM | 150 ± 12 nM | 1430 ± 125 nM | 5 | 110 ± 10 nM | 164 ± 40 nM | 833 ± 30 nM | 5 | 3 |  |  |  |
| CCCC[C@H](CC(=O)NO)c1nc(Cc2coc3ccccc23)no1 [AT015] | 300 ± 12 nM | 1100 nM | 16 µg/mL | > 128 µg/mL | 122 ± 13 nM | > 64 µg/mL | 16 µg/mL | 32 µg/mL | 2 µg/mL |  | 20 ± 3 nM | 166 ± 12 nM |  | 17 ± 2 nM | 10 ± 2 nM | 35 ± 5 nM | 3 | 1 | > 64 µg/mL | > 64 µg/mL | MIC Ea298 [4]: 8 µg/mL; MIC [4]: 128 µg/mL; MIC Ea289 [5]: 128 µg/mL; MIC [5]: > 128 µg/mL |
| CCCCC(CC(=O)NO)c1nc(Cc2ccc(F)cc2)no1 (centres unmarked) [AT002] |  | 53 ± 3 nM |  |  | 4 ± 0.5 nM | > 64 µg/mL | 64 µg/mL | > 64 µg/mL | 32 µg/mL | 58 ± 4 nM | 3.5 ± 0.8 nM | 13 ± 1 nM | 1 | 4 ± 1 nM | 5 ± 2 nM | 31 ± 7 nM | 6 |  | > 64 µg/mL | > 64 µg/mL |  |
| CCCCC(CC(=O)NO)c1nc(-c2ccc(C(F)(F)F)cc2)no1 (centres unmarked) [AT011] | 6000 nM | 5000 nM | 16 µg/mL | 128 µg/mL | 430 ± 39 nM | > 64 µg/mL | 8 µg/mL | 32 µg/mL | 4 µg/mL |  | 128 ± 32 nM | 400 ± 20 nM |  | 215 ± 17 nM | 333 ± 13 nM |  |  | 1 | > 64 µg/mL | > 64 µg/mL | MIC Ea298 [4]: 16 µg/mL; MIC [4]: 128 µg/mL; MIC Ea289 [5]: 64 µg/mL; MIC [5]: > 128 µg/mL |
| CCCCC(CC(=O)NO)c1nc(Cc2ccc(C(=O)OC)cc2)no1 (centres unmarked) [AT018] | 650 ± 20 nM | 833 ± 10 nM |  |  | 18 ± 1 nM | > 64 µg/mL | 64 µg/mL | > 64 µg/mL | 16 µg/mL | 1110 ± 100 nM | 20 ± 1 nM | 38 ± 6 nM | 1 | 20 ± 2 nM | 12 ± 1 nM | 49 ± 3 nM | 4 | 2 |  |  |  |
| CCCCC(CC(=O)NO)c1nc(Cc2ccc(C(F)(F)F)cc2)no1 (centres unmarked) [AT008] |  | 666 ± 29 nM |  |  | 81 ± 5 nM | > 64 µg/mL | >64 µg/mL | > 64 µg/mL | 16 µg/mL | 909 ± 78 nM | 25 ± 2 nM | 75 ± 4 nM | 1 | 14 ± 2 nM | 18 ± 3 nM | 80 ± 10 nM | 4 | 1 | > 64 µg/mL | > 64 µg/mL |  |

— paper PMC5071857, “A unique peptide deformylase platform to rationally design and challenge novel active compounds” (Scientific Reports, 2016)
